Results published in US4322420A, “Method of using 4-anilinoquinazoline derivatives as analgesic and anti-inflammatory agents” (Sankyo Company Limited, priority 1978, dated 1982).
Like-named read-outs stand apart in the source and are kept apart here.

What was measured:
[1] = tested on: bradykinin-induced nociceptive stimulus; assay: Test for analgesic activity (bradykinin-induced nociceptive stimulus, oral administration); type: in vivo, female Hartley guinea pigs; conditions: Cavia porcellus, read-out: ID50 Analgesic Activity
Procedure: This test employs a bradykinin-induced nociceptive stimulus and is a partially modified version of the test described by Deffenu [J. Pharm. Pharmac. […] The test animals were female Hartley guinea pigs having a body weight of from 350 g to 400 g. The guinea pigs were divided into groups, each group containing from 5 to 10 animals. The test animals were cannulated into the carotid artery retrogradely under the anesthesia induced by intraperitoneal injection of 20 mg/kg of pentobarbital. The guinea pigs were allowed to recover from the anesthesia for at least 3 hours before the tests commenced.
The test compounds listed in the following Table 1 were administered orally. Immediately before administration of each test compound and then 15, 30, 60, 90 and 120 minutes after administration, each guinea pig was administered with 0.5 μg of bradykinin through the cannula. Turning of the head or twisting of the front legs upon injection was taken as a sign of nociceptive response. The test compounds were administered at various doses and the inhibition rate was determined accordingly.
(§1) For both of the above tests, the ID50 was calculated by the method of Litchfield and Wilcoxon [J. Pharmacol. Exptl. Therap.

[2] = tested on: carrageenin-induced oedema of the right hind paw; assay: Test for anti-inflammatory activity (carrageenin-induced paw oedema, oral administration); type: in vivo, Male Wistar-Imamichi rats; conditions: Rattus norvegicus, read-out: ID50 Anti-inflammatory Activity
Procedure: Male Wistar-Imamichi rats, each weighing approximately 150 g, were used in these experiments and were divided into groups, each containing 5 animals. Each of the test compounds listed in Table 1 was administered orally, at various doses, to the rats and then, 30 minutes after oral administration,0.05 ml of a 1% w/v carrageenin suspension was subcutaneously injected into the sole of the right hind paw to induce oedema. The volume of the paw was measured both before and 3 hours after injection of the carrageenin by the method of Winder et al [Arch. Int. Pharmacodyn. […] The difference between the volume of the paw before and after injection was defined as the oedema intensity.
as §1

[3] = per os, guinea pigs, 0.5 μg bradykinin via carotid cannula before and 15, 30, 60, 90 and 120 min after dosing, Litchfield and Wilcoxon
[4] = per os, rats, 0.05 ml of 1% w/v carrageenin 30 min after dosing, paw volume 3 hours after injection, Litchfield and Wilcoxon

Compound | ED50 [1] [mg/kg] | ED50 [2] [mg/kg] | ED50 [1, 3] [mg/kg] | ED50 [2, 4] [mg/kg]
CC(=O)Oc1ccccc1C(=O)O [Aspirin, reference compound] | 280 | 145 |  | 
Clc1ccc2c(Nc3ccccc3)ncnc2c1 [Compound 5, 4-Anilino-7-chloroquinazoline] |  |  | 25 | 28
FC(F)(F)c1ccc2c(Nc3ccccc3)ncnc2c1 [Compound 17, 4-Anilino-7-trifluoromethylquinazoline] |  |  | 16.5 | 20
CN(c1ccccc1)c1ncnc2cc(Cl)ccc12 [Compound 55, 7-Chloro-4-(N-methylanilino)quinazoline] |  |  | 50 | 36
CN(c1ccccc1)c1ncnc2cc(C(F)(F)F)ccc12 [Compound 73, 4-(N-Methylanilino)-7-trifluoromethylquinazoline] |  |  | 31 | 15.5
Cc1cccc(Nc2ccccc2C(=O)O)c1C [Mefenamic acid, reference compound] |  |  | 72 | 50
